Source: ChEMBL document CHEMBL3616440, “Non-basic azolotriazinone MCHR1 antagonists for the treatment of obesity: An empirical brain-exposures-driven candidate selection for in vivo efficacy studies” (Bioorg Med Chem Lett, 2015)

Tests used:
[1] = target: T1, Melanin-concentrating hormone receptor 1 (Homo sapiens, UniProt Q99705); test: Displacement of [125I][Phe13,Tyr19]-MCH from human MCHR1 expressed in HEK293 cells by scintillation counting analysis; format: cell-based
[2] = target: Melanin-concentrating hormone receptor 1 (Rattus norvegicus, UniProt P97639); test: Displacement of [125I][Phe13,Tyr19]-MCH from rat MCHR1 by scintillation counting analysis
[3] = test system: Plasma; test: Plasma concentration in Sprague-Dawley rat assessed as (R)-6-(5-chloropyridin-2-yl)-3-(4-(2-cyclopropyl-2-hydroxyethoxy)-3-methoxyphenyl)pyrrolo[1,2-f][1,2,4]triazin-4(3H)-one level at 10 mg/kg, po qd at 8 hrs; format: ADME, organism-based; details: in vivo
[4] = test system: Nucleic Acid; test: Ratio of drug level in Sprague-Dawley rat brain to plasma assessed as (R)-6-(5-chloropyridin-2-yl)-3-(4-(2-cyclopropyl-2-hydroxyethoxy)-3-methoxyphenyl)pyrrolo[1,2-f][1,2,4]triazin-4(3H)-one level at 10 mg/kg, po qd; format: ADME, organism-based
[5] = test system: Brain; test: Drug concentration in Sprague-Dawley rat brain assessed as (R)-6-(5-chloropyridin-2-yl)-3-(4-(2-cyclopropyl-2-hydroxyethoxy)-3-methoxyphenyl)pyrrolo[1,2-f][1,2,4]triazin-4(3H)-one level at 10 mg/kg, po qd at 8 hrs; format: ADME, organism-based; details: in vivo, read-out: Drug uptake
[6] = target: T1, Melanin-concentrating hormone receptor 1; test: Antagonist activity at human MCHR1 expressed in HEK293 cells assessed as inhibition of MCH-induced Ca2+ influx for 120 mins by FLIPR assay; format: functional, cell-based
[7] = test system: Liver; test: Drug level in oral-dosed Sprague-Dawley rat liver treated with (2S)-1-(4-(6-(4-chlorophenyl)-4-oxopyrrolo[1,2-f][1,2,4]triazin-3(4H)-yl)-2-methoxyphenoxy)propan-2-yl 2-amino-3-methylbutanoate; format: ADME, tissue-based; details: in vivo
[8] = test system: Brain; test: Drug concentration in Sprague-Dawley rat brain assessed as 6-(4-chlorophenyl)-3-(4-((3S,4R)-3,4-dihydroxypyrrolidin-1-yl)-3-methoxyphenyl)pyrrolo[1,2-f][1,2,4]triazin-4(3H)-one level at 10 mg/kg, po qd at 8 hrs; format: ADME, organism-based; details: in vivo, read-out: Drug uptake
[9] = test system: Plasma; test: Plasma concentration in Sprague-Dawley rat assessed as 6-(4-chlorophenyl)-3-(4-((3S,4R)-3,4-dihydroxypyrrolidin-1-yl)-3-methoxyphenyl)pyrrolo[1,2-f][1,2,4]triazin-4(3H)-one level at 10 mg/kg, po qd at 8 hrs; format: ADME, organism-based; details: in vivo
[10] = test system: Nucleic Acid; test: Ratio of drug level in Sprague-Dawley rat brain to plasma assessed as 6-(4-chlorophenyl)-3-(4-((3S,4R)-3,4-dihydroxypyrrolidin-1-yl)-3-methoxyphenyl)pyrrolo[1,2-f][1,2,4]triazin-4(3H)-one level at 10 mg/kg, po qd; format: ADME, organism-based
[11] = target: T2, Voltage-gated inwardly rectifying potassium channel KCNH2 (Homo sapiens, UniProt Q12809); test: Inhibition of human ERG by flux assay
[12] = test system: Brain; test: Drug concentration in Sprague-Dawley rat brain assessed as 6-(4-chlorophenyl)-3-(4-((3,3-difluoro-1-hydroxycyclobutyl)methoxy)-3-methoxyphenyl)pyrrolo[1,2-f][1,2,4]triazin-4(3H)-one level at 10 mg/kg, po qd at 8 hrs; format: ADME, organism-based; details: in vivo, read-out: Drug uptake
[13] = test system: Plasma; test: Plasma concentration in Sprague-Dawley rat assessed as 6-(4-chlorophenyl)-3-(4-((3,3-difluoro-1-hydroxycyclobutyl)methoxy)-3-methoxyphenyl)pyrrolo[1,2-f][1,2,4]triazin-4(3H)-one level at 10 mg/kg, po qd at 8 hrs; format: ADME, organism-based; details: in vivo
[14] = test system: Nucleic Acid; test: Ratio of drug level in Sprague-Dawley rat brain to plasma assessed as 6-(4-chlorophenyl)-3-(4-((3,3-difluoro-1-hydroxycyclobutyl)methoxy)-3-methoxyphenyl)pyrrolo[1,2-f][1,2,4]triazin-4(3H)-one level at 10 mg/kg, po qd; format: ADME, organism-based
[15] = target: hERG (KCNH2) (Homo sapiens, UniProt Q12809); test: Inhibition of human ERG at 1 uM by flux assay
[16] = test system: Rattus norvegicus; test: Drug level in oral-dosed Sprague-Dawley rat treated with 1-(4-(6-(4-chlorophenyl)-4-oxothieno[3,2-d]pyrimidin-3(4H)-yl)-2-methoxyphenoxy)-2-methylpropan-2-yl 2-aminoacetate; format: ADME, organism-based; details: in vivo
[17] = target: T2, Voltage-gated inwardly rectifying potassium channel KCNH2; test: Inhibition of human ERG expressed in CHO cells assessed as channel current by Q-patch electrophysiological assay; format: cell-based
[18] = test system: Nucleic Acid; test: Ratio of drug level in Sprague-Dawley rat brain to plasma assessed as 6-(5-chloropyridin-2-yl)-3-(4-(2-cyclopropyl-2-hydroxyethoxy)-3-methoxyphenyl)pyrrolo[1,2-f][1,2,4]triazin-4(3H)-one level at 10 mg/kg, po qd; format: ADME, organism-based
[19] = test system: Plasma; test: Plasma concentration in Sprague-Dawley rat assessed as 6-(5-chloropyridin-2-yl)-3-(4-(2-cyclopropyl-2-hydroxyethoxy)-3-methoxyphenyl)pyrrolo[1,2-f][1,2,4]triazin-4(3H)-one level at 10 mg/kg, po qd at 8 hrs; format: ADME, organism-based; details: in vivo
[20] = test system: Brain; test: Drug concentration in Sprague-Dawley rat brain assessed as 6-(5-chloropyridin-2-yl)-3-(4-(2-cyclopropyl-2-hydroxyethoxy)-3-methoxyphenyl)pyrrolo[1,2-f][1,2,4]triazin-4(3H)-one level at 10 mg/kg, po qd at 8 hrs; format: ADME, organism-based; details: in vivo, read-out: Drug uptake
[21] = test system: Brain; test: Drug concentration in Sprague-Dawley rat brain assessed as (R)-6-(4-chlorophenyl)-3-(4-(3-hydroxypyrrolidin-1-yl)-3-methoxyphenyl)pyrrolo[1,2-f][1,2,4]triazin-4(3H)-one level at 10 mg/kg, po qd at 8 hrs; format: ADME, organism-based; details: in vivo, read-out: Drug uptake
[22] = test system: Nucleic Acid; test: Ratio of drug level in Sprague-Dawley rat brain to plasma assessed as (R)-6-(4-chlorophenyl)-3-(4-(3-hydroxypyrrolidin-1-yl)-3-methoxyphenyl)pyrrolo[1,2-f][1,2,4]triazin-4(3H)-one level at 10 mg/kg, po qd; format: ADME, organism-based
[23] = test system: Plasma; test: Plasma concentration in Sprague-Dawley rat assessed as (R)-6-(4-chlorophenyl)-3-(4-(3-hydroxypyrrolidin-1-yl)-3-methoxyphenyl)pyrrolo[1,2-f][1,2,4]triazin-4(3H)-one level at 10 mg/kg, po qd at 8 hrs; format: ADME, organism-based; details: in vivo
[24] = test system: Brain; test: Drug concentration in Sprague-Dawley rat brain assessed as (S)-6-(4-chlorophenyl)-3-(4-(3-(ethylsulfonyl)-2-hydroxypropoxy)-3-methoxyphenyl)pyrrolo[1,2-f][1,2,4]triazin-4(3H)-one level at 10 mg/kg, po qd at 8 hrs; format: ADME, organism-based; details: in vivo, read-out: Drug uptake
[25] = test system: Plasma; test: Plasma concentration in Sprague-Dawley rat assessed as (S)-6-(4-chlorophenyl)-3-(4-(3-(ethylsulfonyl)-2-hydroxypropoxy)-3-methoxyphenyl)pyrrolo[1,2-f][1,2,4]triazin-4(3H)-one level at 10 mg/kg, po qd at 8 hrs; format: ADME, organism-based; details: in vivo
[26] = test system: Nucleic Acid; test: Ratio of drug level in Sprague-Dawley rat brain to plasma assessed as (S)-6-(4-chlorophenyl)-3-(4-(3-(ethylsulfonyl)-2-hydroxypropoxy)-3-methoxyphenyl)pyrrolo[1,2-f][1,2,4]triazin-4(3H)-one level at 10 mg/kg, po qd; format: ADME, organism-based

Melanin-concentrating hormone receptor 1 (Rattus norvegicus, UniProt P97639), sequence (P97639 whole entry): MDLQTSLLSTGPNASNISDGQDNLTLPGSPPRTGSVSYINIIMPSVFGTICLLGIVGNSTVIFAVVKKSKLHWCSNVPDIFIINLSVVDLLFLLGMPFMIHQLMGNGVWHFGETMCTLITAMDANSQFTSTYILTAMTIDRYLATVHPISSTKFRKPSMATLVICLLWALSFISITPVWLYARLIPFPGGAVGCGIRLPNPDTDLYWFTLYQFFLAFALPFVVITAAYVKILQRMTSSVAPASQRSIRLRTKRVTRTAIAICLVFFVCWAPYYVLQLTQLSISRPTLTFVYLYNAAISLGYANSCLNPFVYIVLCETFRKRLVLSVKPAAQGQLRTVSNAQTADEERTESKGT
T1 sequence (Q99705 whole entry): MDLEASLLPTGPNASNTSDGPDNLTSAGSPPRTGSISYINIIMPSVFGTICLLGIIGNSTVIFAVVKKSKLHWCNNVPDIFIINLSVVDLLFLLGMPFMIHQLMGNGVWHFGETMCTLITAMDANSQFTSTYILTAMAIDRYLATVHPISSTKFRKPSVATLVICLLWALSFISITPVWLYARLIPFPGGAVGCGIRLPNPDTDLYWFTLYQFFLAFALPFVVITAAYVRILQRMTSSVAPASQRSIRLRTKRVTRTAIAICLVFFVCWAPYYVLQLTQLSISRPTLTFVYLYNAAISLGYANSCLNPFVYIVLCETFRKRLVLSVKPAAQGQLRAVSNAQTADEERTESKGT
T2 sequence (Q12809 whole entry): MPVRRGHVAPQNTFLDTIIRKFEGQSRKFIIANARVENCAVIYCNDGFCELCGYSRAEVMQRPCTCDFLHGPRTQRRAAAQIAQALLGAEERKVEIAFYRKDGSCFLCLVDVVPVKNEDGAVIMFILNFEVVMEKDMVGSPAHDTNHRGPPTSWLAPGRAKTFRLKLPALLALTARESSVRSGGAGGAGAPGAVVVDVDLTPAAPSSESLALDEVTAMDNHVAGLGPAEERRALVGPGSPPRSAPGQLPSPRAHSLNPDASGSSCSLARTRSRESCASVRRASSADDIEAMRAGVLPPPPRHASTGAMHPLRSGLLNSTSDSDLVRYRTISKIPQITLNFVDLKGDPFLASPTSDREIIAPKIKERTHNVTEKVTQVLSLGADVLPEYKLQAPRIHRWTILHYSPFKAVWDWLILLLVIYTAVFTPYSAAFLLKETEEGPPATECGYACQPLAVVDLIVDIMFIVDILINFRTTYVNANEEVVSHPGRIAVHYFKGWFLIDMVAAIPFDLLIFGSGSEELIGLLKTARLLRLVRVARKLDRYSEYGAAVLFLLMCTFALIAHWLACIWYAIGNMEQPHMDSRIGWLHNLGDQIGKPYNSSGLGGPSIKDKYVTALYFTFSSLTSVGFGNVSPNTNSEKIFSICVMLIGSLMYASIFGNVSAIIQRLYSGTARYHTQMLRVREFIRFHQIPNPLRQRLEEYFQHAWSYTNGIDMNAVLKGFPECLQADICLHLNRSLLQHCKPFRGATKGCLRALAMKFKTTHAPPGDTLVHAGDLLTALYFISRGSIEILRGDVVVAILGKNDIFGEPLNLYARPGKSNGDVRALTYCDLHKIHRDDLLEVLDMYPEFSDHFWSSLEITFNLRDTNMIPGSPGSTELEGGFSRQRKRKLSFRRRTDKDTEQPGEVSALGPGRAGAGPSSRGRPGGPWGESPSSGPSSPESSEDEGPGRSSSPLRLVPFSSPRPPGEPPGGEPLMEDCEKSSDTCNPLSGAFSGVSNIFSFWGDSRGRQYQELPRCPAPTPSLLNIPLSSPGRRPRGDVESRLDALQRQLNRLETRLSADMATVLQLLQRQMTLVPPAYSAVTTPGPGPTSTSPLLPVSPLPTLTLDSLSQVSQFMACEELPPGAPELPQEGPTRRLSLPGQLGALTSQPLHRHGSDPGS
hERG (KCNH2), sequence (Q12809 whole entry): as above

Compound	Ki [1] [nM]	Ki [2] [nM]	other results
COc1cc(-n2cnn3nc(-c4ccc(Cl)cc4)cc3c2=O)ccc1OCC(O)C1CC1 (centres undefined)	13	13	
COc1cc(-n2cnn3cc(-c4ccc(Cl)cc4)nc3c2=O)ccc1OCCN1CCCC1	4.4	2.6	
COc1cc(-n2cnn3cc(-c4ccc(Cl)cn4)cc3c2=O)ccc1OC[C@H](OC(=O)CN)C1CC1			concentration [3]: 7450 nM; BPR [4]: 0.2; concentration [5]: 1150 nM
COc1cc(-n2cnn3cc(-c4ccc(Cl)cc4)cc3c2=O)ccc1OCC(C)(C)O	2.3	1.8	IC50 [6]: 44 nM
COc1cc(-n2cnn3cc(-c4ccc(Cl)cc4)cc3c2=O)ccc1OCC(O)C(=O)O (centres undefined)			Drug metabolism [7]: metabolite_detected
COc1cc(-n2cnn3cc(-c4ccc(Cl)cn4)cc3c2=O)ccc1OCC(O)C1CC1 (centres undefined)	13	12	
COc1cc(-n2cnn3cc(-c4ccc(Cl)cc4)cc3c2=O)ccc1OCC(C)O (centres undefined)		1.4	
COc1cc(-n2cnn3cc(-c4ccc(Cl)cc4)cc3c2=O)ccc1N1CC[C@@H](O)C1	4.8	4.7	
COc1cc(-n2cnn3cc(-c4ccc(Cl)cc4)cc3c2=O)ccc1N1C[C@H](OC(=O)[C@@H](N)C(C)C)[C@H](OC(=O)[C@@H](N)C(C)C)C1			concentration [8]: 210 nM; concentration [9]: 272 nM; BPR [10]: 0.77
COc1cc(-n2cnn3cc(-c4ccc(Cl)cc4)cc3c2=O)ccc1OCC(O)CO (centres undefined)			Drug metabolism [7]: metabolite_detected
COc1cc(-n2cnn3cc(-c4ccc(Cl)cc4)cc3c2=O)ccc1OCC1(OC(=O)CN)CC(F)(F)C1			concentration [12]: 2380 nM; concentration [13]: 477 nM; BPR [14]: 0.6
O=c1c2cc(-c3ccc(Cl)cc3)cn2ncn1-c1ccc(N2CC[C@@H](O)C2)nc1	5.3	5.5	inhibition at 1 µM [15]: 26%
O=c1c2cc(-c3ccc(Cl)cn3)cn2ncn1-c1ccc(N2CC[C@@H](O)C2)nc1	124	54	
COc1cc(-n2cnn3cc(-c4ncc(Cl)cn4)cc3c2=O)ccc1OCC(C)(C)O	13	15	
COc1cc(-n2cnn3cc(-c4ccc(Cl)cn4)cc3c2=O)ccc1N1CC[C@@H](O)C1	9.1	9.6	
COc1ccc(-n2cnn3cc(-c4ccc(Cl)cc4)nc3c2=O)cc1OC	76	87	
CCS(=O)(=O)C[C@@H](O)COc1ccc(-n2cnn3cc(-c4ccc(Cl)cc4)cc3c2=O)cc1OC	2.4	1.5	
CCS(=O)(=O)C[C@@H](O)COc1ccc(-n2cnn3cc(-c4ncc(Cl)cn4)cc3c2=O)cc1OC	28	23	
COc1cc(-n2cnc3cc(-c4ccc(Cl)cc4)sc3c2=O)ccc1OCC(C)(O)C(=O)O (centres undefined)			Drug metabolism [16]: metabolite_detected
O=c1c2cc(-c3ccc(Cl)cc3)cn2ncn1-c1ccc(N2CCC(N3CC(O)C3)C2)nc1 (centres undefined)	0.8	1.4	IC50 [11]: 2000 nM
COc1cc(-n2cnn3cc(-c4ccc(Cl)cc4)cc3c2=O)ccc1OCC(O)C1CC1 (centres undefined)	3.5		IC50 [6]: 300 nM
CCS(=O)(=O)C[C@@H](O)COc1ccc(-n2cnn3cc(-c4ccc(Cl)cn4)cc3c2=O)cc1OC	15	8.7	
COc1cc(-n2cnn3cc(-c4ccc(Cl)cc4)cc3c2=O)ccc1OCC1(O)CC(F)(F)C1	3.4	3.8	
COc1cc(-n2cnn3cc(-c4ccc(Cl)cn4)cc3c2=O)ccc1OCC(OC(=O)[C@@H](N)C(C)C)C1CC1 (some centres undefined)			BPR [18]: 0.2; concentration [19]: 10200 nM; concentration [20]: 2040 nM
COc1cc(-n2cnn3cc(-c4ccc(Cl)cc4)cc3c2=O)ccc1N1CC[C@@H](OC(=O)[C@@H](N)C(C)C)C1			concentration [21]: 966 nM; BPR [22]: 2.9; concentration [23]: 339 nM
CCS(=O)(=O)C[C@H](COc1ccc(-n2cnn3cc(-c4ccc(Cl)cc4)cc3c2=O)cc1OC)OC(=O)CN			concentration [24]: 175 nM; concentration [25]: 1830 nM; BPR [26]: 0.1
COc1ccc(-n2cnn3nc(-c4ccc(Cl)cc4)cc3c2=O)cc1OC	86	106	
COc1ccc(-n2cnn3cc(-c4ccc(Cl)cc4)cc3c2=O)cc1OC	21	8	
COc1cc(-n2cnn3cc(-c4ccc(Cl)cn4)cc3c2=O)ccc1OCC1(O)CC(F)(F)C1	6.5	6.5	
COc1cc(-n2cnc3cc(-c4ccc(Cl)cc4)sc3c2=O)ccc1OCC(C)(O)CO (centres undefined)			Drug metabolism [16]: metabolite_detected

Continued, in another order:

Ki [1] [nM]	Ki [2] [nM]	Compound	other results
17	15	COc1cc(-n2cnn3cc(-c4ncc(Cl)cn4)cc3c2=O)ccc1OCC(O)C1CC1 (centres undefined)	
9	7.9	COc1cc(-n2cnn3cc(-c4ncc(Cl)cn4)cc3c2=O)ccc1OCC1(O)CC(F)(F)C1	
0.4	0.3	CNC1CCN(c2ccc(-n3cnn4cc(-c5ccc(Cl)cc5)cc4c3=O)cn2)C1 (centres undefined)	
0.5	0.4	COc1cc(-n2cnn3cc(-c4ccc(Cl)cc4)cc3c2=O)ccc1OCCN1CCCC1	IC50 [11]: 5500 nM
26	18	COc1cc(-n2cnn3cc(-c4ccc(Cl)cc4)nc3c2=O)ccc1OCC(O)C1CC1 (centres undefined)	
6.5	12	COc1cc(-n2cnn3cc(-c4ccc(Cl)cn4)cc3c2=O)ccc1OC[C@H](O)C1CC1	
15	14	O=c1c2cc(-c3ccc(Cl)cc3)cn2ncn1-c1ccc(N2CC(O)C2)nc1	IC50 [11]: 3300 nM
12	18	O=c1c2cc(-c3ccc(Cl)cc3)cn2ncn1-c1ccc(N2CCC(O)CC2)nc1	IC50 [17]: > 10000 nM; IC50 [11]: > 80000 nM
3.1	2.3	COc1cc(-n2cnn3cc(-c4ccc(Cl)cc4)cc3c2=O)ccc1N1C[C@@H](O)[C@@H](O)C1	IC50 [6]: 5000 nM
0.7	0.5	COc1cc(-n2cnn3nc(-c4ccc(Cl)cc4)cc3c2=O)ccc1OCCN1CCCC1	
